Laboratory results as given in BindingDB's records for doi:10.1021/jm00098a005 (Pfizer, 1992).

test: Compound was evaluated for binding affinity towards 5-hydroxytryptamine 1C receptor in pig choroid plexus using [3H]mesulergine as radioligand

Q: With `CN(C)CCc1c[nH]c2ccc3c(c12)CCCO3` as the molecule, how does the IC50 read?
A: Its IC50 is 150 nM.

Q: With `Cn1cc(CCN)c2c3c(ccc21)OCCC3` as the molecule, how does the IC50 read?
A: Its IC50 is 100 nM.

Q: With `CN(C)CCc1cn(C)c2ccc3c(c12)CCCO3` as the molecule, how does the IC50 read?
A: The IC50 was 100 nM.

Q: For `NCCc1c[nH]c2ccc3c(c12)CCCO3`, which IC50 is on record?
A: The IC50 was 41 nM.

Q: Which IC50 does the source give for `CN(C)CCc1c[nH]c2cc3c(cc12)OCCC3` here?
A: Its IC50 is 2500 nM.

test: Compound was evaluated for binding affinity towards 5-hydroxytryptamine 1D receptor in bovine caudate using [3H]- serotonin as radioligand

Q: For `CN(C)CCc1c[nH]c2ccc3c(c12)CCCO3`, which IC50 is on record?
A: The IC50 was 220 nM.

Q: Which IC50 does the source give for `Cn1cc(CCN)c2c3c(ccc21)OCCC3` here?
A: Its IC50 is 4200 nM.

Q: Which IC50 does the source give for `CN(C)CCc1cn(C)c2ccc3c(c12)CCCO3` here?
A: The IC50 was 9300 nM.

Q: With `NCCc1c[nH]c2ccc3c(c12)CCCO3` as the molecule, how does the IC50 read?
A: Its IC50 is 110 nM.
